# In paper PMC8659243, “Design, Synthesis and Tumour-Selective Toxicity of Novel 1-[3-{3,5-Bis(benzylidene)-4-oxo-1-piperidino}-3-oxopropyl]-4-piperidone Oximes and Related Quaternary Ammonium Salts” (Molecules, 2021):
# Counter-ions that a name gives are not always drawn.
# Legend:
# [1] = test system: Ca9-22, HSC-2 and HSC-4 cells; assay: Average over Ca9-22, HSC-2 and HSC-4 neoplastic cells; assay type: cell-based, human; conditions: for CC50: Homo sapiens, average of Ca9-22, HSC-2 and HSC-4, read-out: Average CC50; for Average SI: average of SI for Ca9-22, HSC-2 and HSC-4
# Description: In order to assess whether the compounds in series 3 and 4 are more toxic to neoplasms than non-malignant cells, selective index (SI) figures were calculated. In the in vivo situation, a tumour is surrounded by a number of non-malignant cells.
# In order to identify the most promising lead compounds in terms of both cytotoxic potencies and favourable SI values, potency–selectivity expression (PSE) values were computed. […] Outstanding results may be noted for four compounds that have PSE values in excess of 100,000 namely 3d, 4c–e. […] However, the relative SI/PSE distribution patterns between series 3 and 4 (from a to h) are nearly superimposable with each other (Figure 3). […] It has been reported that 3,5-bis(3-iodo-5-methoxy-4-propoxybenzylidene)-N-acetylpiperidin-4-one inhibited tubulin and destabilization of microtubules, while 3,5-bis(3,4,5-trimethoxybenzylidene)-N-benzoylpiperidin-4-one destabilizes the microtubules. Thus, it remained to investigate whether compound 4d acts as an inhibitor of the microtubule.
# (§1) A literature procedure was followed when the compounds in series 3 and 4 were evaluated against three human oral squamous cell carcinoma cell lines Ca9-22 (RCB-1976), HSC-2 (RCB1945), HSC-4 (RCB1902) (purchased from RIKEN Cell Bank, Tukuba, Japan) and three human normal oral cells, gingival fibroblast (HGF), periodontal ligament fibroblast (HPLF) and pulp cells (HPC) (established according to the guideline of the intramural ethic committee, A0808) except the duration of incubation was increased from 24 h to 48 h. In brief, various concentrations of the compounds were added to the DMEM media, which was supplemented by 10% heat-inactivated fetal bovine serum. Incubation was undertaken at 37 °C. At the completion of the experiment, cell viability was determined by the MTT method.
# Colo205 cells = assay: NCI in vitro screen, colon cancer Colo205; assay type: cell-based; conditions: Homo sapiens, COLO 205
# Source text: (§2) One particular reference drug is 5-fluorouracil, which is used in treating colon cancers.
# SW-620 cells = assay: NCI in vitro screen, colon cancer SW-620; assay type: cell-based; conditions: Homo sapiens
# Source text: as §2
# HSC-2 cells = assay: Cytotoxicity against HSC-2 cells, MTT method, 48 h; assay type: cell-based, human; conditions: for CC50: Homo sapiens, HSC-2, concentration required to kill 50% of the cells, 48 h, MTT; for SI HSC-2: average CC50 towards HGF, HPLF, HPC divided by CC50 against HSC-2
# Description: as §1
# RPMI-8226 cells = assay: NCI in vitro screen, leukemia RPMI-8226; assay type: cell-based; conditions: Homo sapiens
# Source text: (§3) In view of the encouraging result with CEM leukemic cells, consideration was given to an assessment in the NCI in vitro screening program. The oximes, but not the quaternary ammonium salts, were accepted for bioevaluation. Examination of the mean graphs confirms the sensitivity of leukemic cells to these compounds.
# [2] = test system: CEM T-lymphoblastic leukemia cells; assay: Cytotoxicity against CEM cells, MTT method, 24 h; assay type: cell-based; conditions: Homo sapiens, CCRF-CEM, concentration required to inhibit cell growth by 50%
# Description: The method used for the evaluation of various compounds against human CEM cells has been reported previously. In brief, cells were grown in RPMI-1640 medium supplemented with 10% heat-inactivated fetal bovine serum. Different concentrations of compounds were added to the media, and after 24 h incubation, cytotoxicity was measured by the MTT method.
# [3] = Stability by 1H NMR in 9:1 deuterated dimethylsulfoxide and deuterium oxide; assay type: physicochemical; conditions: 37 °C
# HCC-2998 cells = assay: NCI in vitro screen, colon cancer HCC-2998; assay type: cell-based; conditions: Homo sapiens
# Source text: as §2
# [4] = Cytotoxicity against non-malignant HGF cells, MTT method, 48 h; assay type: cell-based; conditions: human, gingival fibroblasts (HGF)
# Description: as §1
# colon cancer cells = assay: NCI in vitro screen, average of colon cancer cells; assay type: cell-based; conditions: Homo sapiens
# Source text: as §2
# SR cells = assay: NCI in vitro screen, leukemia SR; assay type: cell-based; conditions: Homo sapiens
# Source text: as §3
# HSC-4 cells = assay: Cytotoxicity against HSC-4 cells, MTT method, 48 h; assay type: cell-based, human; conditions: for CC50: Homo sapiens, HSC-4, concentration required to kill 50% of the cells, 48 h, MTT, read-out: CC50 HSC-4; for SI HSC-4: average CC50 towards HGF, HPLF, HPC divided by CC50 against HSC-4
# Description: as §1
# HL-60 (TB) cells = assay: NCI in vitro screen, leukemia HL-60 (TB); assay type: cell-based; conditions: Homo sapiens
# Source text: as §3
# HT29 cells = assay: NCI in vitro screen, colon cancer HT29; assay type: cell-based; conditions: Homo sapiens, HT-29
# Source text: as §2
# Molt-4 cells = assay: NCI in vitro screen, leukemia Molt-4; assay type: cell-based; conditions: Homo sapiens
# Source text: as §3
# KM12 cells = assay: NCI in vitro screen, colon cancer KM12; assay type: cell-based; conditions: Homo sapiens
# Source text: as §2
# HCT-116 cells = assay: NCI in vitro screen, colon cancer HCT-116; assay type: cell-based; conditions: Homo sapiens
# Source text: as §2
# Ca9-22 cells = assay: Cytotoxicity against Ca9-22 cells, MTT method, 48 h; assay type: cell-based, human; conditions: for CC50: Homo sapiens, Ca9-22, concentration required to kill 50% of the cells, 48 h, MTT, read-out: CC50 Ca9-22; for SI Ca9-22: average CC50 towards HGF, HPLF, HPC divided by CC50 against Ca9-22
# Description: as §1
# HCT-15 cells = assay: NCI in vitro screen, colon cancer HCT-15; assay type: cell-based; conditions: Homo sapiens
# Source text: as §2
# [5] = Cytotoxicity against non-malignant HPLF cells, MTT method, 48 h; assay type: cell-based; conditions: human, periodontal ligament fibroblasts (HPLF)
# Description: as §1
# [6] = Average over HGF, HPLF and HPC non-malignant cells; assay type: cell-based; conditions: human, HPLF and HPC non-malignant cells (average of the three)
# Description: as §1
# K-562 cells = assay: NCI in vitro screen, leukemia K-562; assay type: cell-based; conditions: Homo sapiens, K562
# Source text: as §3
# All Cell Lines = assay: NCI in vitro screen, all cell lines; assay type: cell-based; conditions: Homo sapiens
# Source text: as §2
# leukemia cells = assay: NCI in vitro screen, average of leukemia cells; assay type: cell-based; conditions: Homo sapiens
# Source text: as §3
# [7] = Cytotoxicity against non-malignant HPC cells, MTT method, 48 h; assay type: cell-based; conditions: human, pulp cells (HPC)
# Description: as §1
Structure (SMILES),CC50 [1] [nM],Average SI [1],IC50 (Colo205 cells) [nM],IC50 (SW-620 cells) [nM],CC50 (HSC-2 cells) [nM],SI HSC-2 (HSC-2 cells),IC50 (RPMI-8226 cells) [nM],IC50 [2] [nM],IC50 (HCC-2998 cells) [nM],CC50 at 48 h [4] [nM],IC50 (colon cancer cells) [nM],IC50 (SR cells) [nM],CC50 (HSC-4 cells) [nM],SI HSC-4 (HSC-4 cells),IC50 (HL-60 (TB) cells) [nM],IC50 (HT29 cells) [nM],IC50 (Molt-4 cells) [nM],IC50 (KM12 cells) [nM],IC50 (HCT-116 cells) [nM],CC50 (Ca9-22 cells) [nM],also measured
"O=C1/C(=C/c2ccccc2)CN(C(=O)CCN2CCC(=NO)CC2)C/C1=C\c1ccccc1 [Compound 3a, (3~{E},5~{E})-3,5-bis-benzylidine-1-[3-(4-hydroximino-1-piperidyl)propanoyl]piperidin-4-one hydrochloride]",660,18.1,1700,320,890 ± 60,12.4,320,5390 ± 260,1740,7110 ± 470,1100,330,440 ± 160,25.0,2600,1200,690,660,680,650 ± 70,stability: 1H NMR spectra in dissolution and after 48 h incubation [3]: identical; SI Ca9-22 (Ca9-22 cells): 16.9; IC50 (HCT-15 cells): 1380 nM; CC50 at 48 h [5]: 14300 ± 3790 nM; CC50 at 48 h [6]: 11000 nM; IC50 (K-562 cells): 400 nM; IC50 (All Cell Lines): 1510 nM; IC50 (leukemia cells): 850 nM; CC50 at 48 h [7]: 11500 ± 2570 nM
"O=C1/C(=C/c2ccc(Cl)c(Cl)c2)CN(C(=O)CCN2CCC(=NO)CC2)C/C1=C\c1ccc(Cl)c(Cl)c1 [Compound 3d, (3~{E},5~{E})-3,5-bis[(3,4-dichlorophenyl)methylene]-1-[3-(4-hydroximino-1-piperidyl)propanoyl]piperidin-4-one hydrochloride]",60,89.1,390,230,100 ± 20,35.9,230,8490 ± 340,360,1910 ± 220,310,100,70,51.3,1000,320,320,250,320,20 ± 10,SI Ca9-22 (Ca9-22 cells): 180; IC50 (HCT-15 cells): 270 nM; CC50 at 48 h [5]: 3900 ± 1420 nM; CC50 at 48 h [6]: 3590 nM; IC50 (K-562 cells): 250 nM; IC50 (All Cell Lines): 1300 nM; IC50 (leukemia cells): 370 nM; CC50 at 48 h [7]: 4970 ± 890 nM
"O=C1/C(=C/c2ccc(Cl)cc2)CN(C(=O)CCN2CCC(=NO)CC2)C/C1=C\c1ccc(Cl)cc1 [Compound 3c, (3~{E},5~{E})-3,5-bis[(4-chlorophenyl)methylene]-1-[3-(4-hydroximino-1-piperidyl)propanoyl]piperidin-4-one hydrochloride]",320,69.5,350,150,660 ± 140,20.5,160,15900 ± 940,310,6400 ± 350,260,40,180 ± 30,75.0,560,300,280,220,210,120 ± 80,SI Ca9-22 (Ca9-22 cells): 113; IC50 (HCT-15 cells): 270 nM; CC50 at 48 h [5]: 8030 ± 60 nM; CC50 at 48 h [6]: 13500 nM; IC50 (K-562 cells): 160 nM; IC50 (All Cell Lines): 1620 nM; IC50 (leukemia cells): 240 nM; CC50 at 48 h [7]: 26100 ± 35900 nM
